The target of assay [1] is T1, human muscarinic M1 receptor (Homo sapiens, UniProt P11229).
T1 sequence (P11229 1-460): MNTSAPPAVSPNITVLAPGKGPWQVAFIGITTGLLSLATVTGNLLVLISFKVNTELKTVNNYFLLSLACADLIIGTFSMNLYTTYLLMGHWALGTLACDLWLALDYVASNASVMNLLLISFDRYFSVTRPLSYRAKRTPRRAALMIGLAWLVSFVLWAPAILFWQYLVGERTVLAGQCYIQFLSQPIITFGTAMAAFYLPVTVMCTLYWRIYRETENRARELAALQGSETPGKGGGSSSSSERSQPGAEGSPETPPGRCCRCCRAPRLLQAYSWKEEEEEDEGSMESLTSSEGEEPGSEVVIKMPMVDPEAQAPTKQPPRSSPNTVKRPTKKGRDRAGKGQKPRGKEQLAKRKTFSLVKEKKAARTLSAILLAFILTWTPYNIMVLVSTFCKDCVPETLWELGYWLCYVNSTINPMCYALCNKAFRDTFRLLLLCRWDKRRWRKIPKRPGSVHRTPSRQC
The experiment in a line: Alphascreen Surefire phospho-ERK1/2 functional assay, M1. It counts as cell-based. Conditions: for EC50 / M1 % Emax cf. ACh: CHO cells stably expressing human M1; for EC50: phospho-ERK1/2, read-out: pEC50 M1 (converted); for Emax: CHO, read-out: M1 % Emax cf. ACh, CHO cells stably expressing human M1; for Emax / M1 % Emax cf. ACh: Emax relative to ACh. As to the method: (§1) Functional assays were performed using the Alphascreen Surefire phospho-ERK1/2 assay (Crouch & Osmond, Comb. Chem. High Throughput Screen, 2008). ERK1/2 phosphorylation is a downstream consequence of both Gq/11 and Gi/o protein coupled receptor activation, making it highly suitable for the assessment of M1, M3 (Gq/11 coupled) and M2, M4 receptors (Gi/o coupled), rather than using different assay formats for different receptor subtypes. CHO cells stably expressing the human muscarinic M1, M2, M3 or M4 receptor were plated (25K/well) onto 96-well tissue culture plates in MEM-alpha+10% dialysed FBS. Once adhered, cells were serum-starved overnight. Agonist stimulation was performed by the addition of 5 μL agonist to the cells for 5 min (37° C.). Media was removed and 50 μL of lysis buffer added. After 15 min, a 4 μL sample was transferred to 384-well plate and 7 μL of detection mixture added. Plates were incubated for 2 h with gentle agitation in the dark and then read on a PHERAstar plate reader.
(§2) pEC50 and Emax figures were calculated from the resulting data for each receptor subtype.
For orientation: Bead proximity is the source of the signal in Alpha formats.

For assay [2], the target named is T2, human muscarinic M4 receptor (Homo sapiens, UniProt P08173).
T2 construct: expressed in transfected cells
T2 sequence (P08173 1-479): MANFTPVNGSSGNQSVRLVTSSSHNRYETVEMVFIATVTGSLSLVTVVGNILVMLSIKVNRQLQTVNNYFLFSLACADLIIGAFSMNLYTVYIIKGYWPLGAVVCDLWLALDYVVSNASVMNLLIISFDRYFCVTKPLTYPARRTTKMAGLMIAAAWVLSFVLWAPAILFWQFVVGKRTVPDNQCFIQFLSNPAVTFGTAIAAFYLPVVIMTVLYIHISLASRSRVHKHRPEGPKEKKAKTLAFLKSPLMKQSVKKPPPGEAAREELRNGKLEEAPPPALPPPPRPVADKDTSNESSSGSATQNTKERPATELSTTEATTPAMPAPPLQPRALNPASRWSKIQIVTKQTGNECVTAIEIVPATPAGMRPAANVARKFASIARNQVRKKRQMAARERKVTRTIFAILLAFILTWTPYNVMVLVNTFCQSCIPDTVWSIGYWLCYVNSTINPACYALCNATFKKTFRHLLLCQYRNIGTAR
Kind of assay: Alphascreen Surefire phospho-ERK1/2 functional assay, M4. In kind it is cell-based. Conditions: for EC50 / M4 % Emax cf. ACh: CHO cells stably expressing human M4; for EC50: phospho-ERK1/2, read-out: pEC50 M4 (converted); for Emax: CHO, read-out: M4 % Emax cf. ACh, CHO cells stably expressing human M4; for Emax / M4 % Emax cf. ACh: Emax relative to ACh. The procedure:
as §1, §2

Broadly, the Emax is the greatest response seen or fitted, relative to the assay's reference. `CCOC(=O)N[C@@H]1CCN(C2CCC3(CC2)C(=O)Nc2ccccc23)C1` (single isomer, unassigned) [2-2 isomer 1]: in assay [1], the EC50 was 158 nM and the Emax stood at 103%. In addition, in assay [2], the EC50 was 871 nM and the Emax amounted to 84%.
Consider `CCOC(=O)N(C)[C@@H]1CCN(C2CCC3(CC2)C(=O)Nc2cccnc23)C1` (single isomer, unassigned) [2-21 isomer 2], for which, in assay [1], the EC50 was 468 nM and the Emax stood at 58%. In assay [2], the EC50 was 245 nM and the Emax worked out at 86%.
Take `CCOC(=O)N1CCCN(C2CCC3(CC2)C(=O)Nc2ccc(C#N)cc23)CC1` (single isomer, unassigned) [4-14 isomer 1]: the EC50 is 977 nM in assay [1] and more than 20000 nM in assay [2]. Besides, the Emax in assay [1] stood at 76%; in assay [2], 24%.
`CCOC(=O)N[C@H]1CCN(C2CCC3(CC2)C(=O)Nc2c(C)cccc23)C1` (single isomer, unassigned) [2-3 isomer 1]: in assay [1], the EC50 was 77.6 nM and the Emax is 32%. For the same compound, in assay [2], the EC50 is more than 20000 nM and the Emax came out at 1%.
For the compound `CCOC(=O)N1CCCN(C2CCC3(CC2)C(=O)Nc2cc(C#N)ccc23)CC1` (single isomer, unassigned) [4-13 isomer 2], in assay [1], the EC50 was 955 nM and the Emax is 38%. In assay [2], the EC50 is 347 nM and the Emax worked out at 39%.
As for `CCOC(=O)N[C@@H]1CCN(C2CCC(C#N)(c3cccc(F)c3)CC2)C1` (single isomer, unassigned) [1-6 Isomer 2], in assay [1], the EC50 was 229 nM and the Emax was 116%. For the same compound, in assay [2], the EC50 is 1780 nM and the Emax is 49%.
Turning to `CCOC(=O)N[C@H]1CCN(C2CCC3(CC2)C(=O)Nc2ccc(OC)nc23)C1` (single isomer, unassigned) [2-20 isomer 1], the figures for the EC50 in assay [1] and in assay [2] were 372 nM and more than 20000 nM, respectively. Further, the Emax is 32% in assay [1] and 16% in assay [2].
Regarding `Cc1noc(C2CC3(CCN(C4CCC(C#N)(c5ccc(F)cn5)CC4)C3)C2)n1` (single isomer, unassigned) [21-3 Isomer 3], in assay [1], the “M1 % Emax cf. ACh” value was 51% and the EC50 was 562 nM. In assay [2], the “M4 % Emax cf. ACh” value amounted to 15% and the EC50 was more than 20000 nM.
On to `CCOC(=O)N1CCCN(C2CCC3(CC2)C(=O)Nc2ncc(OC)cc23)CC1` (single isomer, unassigned) [4-17 isomer 2], for which, in assay [1], the EC50 was 437 nM and the Emax is 89%. Also, in assay [2], the EC50 was more than 20000 nM and the Emax amounted to 19%.
As for `CCOC(=O)N1CCCN(C2CCC3(CC2)C(=O)Nc2ccc(OC)nc23)CC1` (single isomer, unassigned) [4-24 isomer 1], in assay [1], the EC50 is 813 nM and the Emax is 75%. In assay [2], the EC50 was 316 nM and the Emax worked out at 61%.
As to `CCOC(=O)N[C@H]1CCN(C2CCC(C#N)(c3ccc(Cl)cn3)CC2)C1` (single isomer, unassigned) [1-15 Isomer 2], the EC50 in assay [1] is 269 nM; in assay [2], more than 20000 nM. In addition, the results for the Emax in assay [1] and in assay [2] were 39% and 7%, respectively.
Turning to `CCOC(=O)N1CC2(CCN(C3CCC4(CC3)C(=O)Nc3ccccc34)C2)C1` (mixture of isomers) [10-1 mixture of isomers], in assay [1], the EC50 is 38.9 nM and the Emax came to 39%. Moreover, in assay [2], the EC50 is more than 20000 nM and the Emax was 8%.
For the compound `CCOC(=O)NCC1CCN(C2CCC3(CC2)C(=O)Nc2ccccc23)CC1` (single isomer, unassigned) [7-2 isomer 2], in assay [1], the “M1 % Emax cf. ACh” value is 66% and the EC50 was 389 nM. In assay [2], the “M4 % Emax cf. ACh” value worked out at 10% and the EC50 is more than 20000 nM.
Consider `N#CC1(c2ccc(F)cn2)CCC(N[C@@H]2CC[C@H](c3nc(C(F)(F)F)no3)C2)CC1` (single isomer, unassigned) [28-1 Isomer 2], for which, in assay [1], the EC50 was 977 nM and the Emax is 59%. In assay [2], the EC50 is 832 nM and the Emax worked out at 45%.
Regarding `Cc1noc(C2CC3(CCN(C4CCC(C#N)(c5ccc(F)cn5)CC4)C3)C2)n1` (single isomer, unassigned) [21-3 Isomer 4], in assay [1], the “M1 % Emax cf. ACh” value amounted to 80% and the EC50 is 162 nM. In assay [2], the “M4 % Emax cf. ACh” value is 75% and the EC50 is 69.2 nM.
Take `COc1ccc2c(c1)C1(CCC(N3CCC4(CC(c5nc(C)no5)C4)C3)CC1)C(=O)N2` (single isomer, unassigned) [26-2 Isomer 3]: in assay [1], the “M1 % Emax cf. ACh” value is listed as 51% and the EC50 was 224 nM. Besides, in assay [2], the “M4 % Emax cf. ACh” value turned out to be 14% and the EC50 was more than 20000 nM.
Take `CCOC(=O)N[C@H]1CCN(C2CCC3(CC2)C(=O)N(C(=O)OCC)c2ccccc23)C1` (single isomer, unassigned) [2-14 isomer 2]: in assay [1], the EC50 is 117 nM and the Emax was determined as 77%. In assay [2], the EC50 is more than 20000 nM and the Emax is 56%.
Consider `CCOC(=O)N[C@H]1CCN(C2CCC3(CC2)C(=O)Nc2cnc(OC)cc23)C1` (single isomer, unassigned) [2-19 isomer 1], for which the EC50 was 2090 nM in assay [1] and more than 20000 nM in assay [2]. Also, the figures for the Emax in assay [1] and in assay [2] were 63% and 19%, respectively.
For `CCOC(=O)N1CCCN(C2CCC3(CC2)C(=O)Nc2cc(C)ccc23)CC1` (single isomer, unassigned) [4-6 isomer 1], in assay [1], the “M1 % Emax cf. ACh” value is reported as 85% and the EC50 was 575 nM. In addition, in assay [2], the “M4 % Emax cf. ACh” value was 26% and the EC50 is 3240 nM.
Regarding `CCOC(=O)N1CCCN(C2CCC3(CC2)C(=O)Nc2ncc(Cl)cc23)CC1` (single isomer, unassigned) [4-16 isomer 1], in assay [1], the EC50 was 891 nM and the Emax amounted to 60%. Also, in assay [2], the EC50 is more than 20000 nM and the Emax was determined as 5%.
For the compound `COc1ccc(C2(C#N)CCC(N3CCC4(CC(c5nc(C)no5)C4)C3)CC2)nc1` (single isomer, unassigned) [21-4 Isomer 4], in assay [1], the EC50 was 2140 nM and the Emax came out at 47%. Also, in assay [2], the EC50 is 309 nM and the Emax worked out at 68%.
For the compound `CCOC(=O)N[C@H]1CCN(C2CCC3(CC2)C(=O)Nc2cc(OC)ccc23)C1` (single isomer, unassigned) [2-9 isomer 1], the EC50 in assay [1] is 282 nM; in assay [2] it was more than 20000 nM. The Emax amounted to 77% in assay [1] and 51% in assay [2].
For `CCOC(=O)N1CCCN(C2CCC3(CC2)C(=O)Nc2cccc(C)c23)CC1` (single isomer, unassigned) [4-8 isomer 1], in assay [1], the “M1 % Emax cf. ACh” value was found to be 67% and the EC50 is 1100 nM. In assay [2], the “M4 % Emax cf. ACh” value turned out to be 52% and the EC50 is 380 nM.
Consider `Cc1ccc(C2(C#N)CCC(N3CCC4(CC(c5nc(C)no5)C4)C3)CC2)nc1` (single isomer, unassigned) [21-5 Isomer 1], for which, in assay [1], the “M1 % Emax cf. ACh” value was 18% and the EC50 is more than 20000 nM. For the same compound, in assay [2], the EC50 was 1070 nM and the Emax came out at 55%.
In the case of `CCOC(=O)NC1CCN(C2CCC3(CC2)C(=O)Nc2ccccc23)CC1` (single isomer, unassigned) [7-1 isomer 2], in assay [1], the “M1 % Emax cf. ACh” value is on record as 68% and the EC50 is 490 nM. In addition, in assay [2], the “M4 % Emax cf. ACh” value worked out at 20% and the EC50 is 282 nM.
